Assay results taken from patent US8222247B2, “Modulators of glucocorticoid receptor, AP-1, and/or NF-kappabeta activity and use thereof” (Bristol-Myers Squibb Company, priority 2006, dated 2012).
Where two headings read alike, the source gives them in different places.

Tested on: AP-1 induced transcriptional activity
Test: Cellular Transrepressional Assay (AP-1 luciferase reporter in A549 cell, PMA activated)
Format: cell-based
Conditions: pAP-1-Luc; for Emax / AP-1 Max % inh (Cellular Transrepression Assay): maximum inhibition, PMA; for Emax: read-out: AP-1 Max % inh (Cellular Transrepression Assay); for EC50: 10 ng/ml PMA, 7 hours, read-out: AP-1 EC50, nM (Cellular Transrepression Assay)
Experimental: Cellular Transrepressional Assay
To measure the ability of test molecules to inhibit AP-1 induced transcriptional activity we utilized an A549 cell which was stably transfected with a plasmid containing 7×AP-1 DNA binding sites (pAP-1-Luc plasmid, Stratagene Co. La Jolla, Calif.) followed by the gene for luciferase. Cells were activated with 10 ng/ml of phorbol myristic acid (PMA) plus or minus test molecules for 7 hours. After 7 hours a luciferase reagent was added to measure luciferase enzymatic activity in the cell. After a 10 minute incubation of luciferase reagent with cells, luminescence was measured in a TopCount luminescence counter. Repression of AP-1 activity was calculated as the percentage decrease in the signal induced by PMA alone. Test molecules were analyzed in the concentration range from 0.1 nM to 40 μM. EC50s were determined by using standard curve fitting methods such as Excel fit (Microsoft Co.). An EC50 is the test molecule concentration at which there is a 50% repression of the maximal inhibition of transcription, i.e. a 50% reduction of AP-1 activity.

| EC50 (Homo sapiens, A549, 7 h) | EC50 | SMILES | Emax (Homo sapiens, A549, 7 h) | AP-1 Max % inh (Cellular Transrepression Assay) |
| --- | --- | --- | --- | --- |
| 40.5 nM | – | CC(C)(C(=O)Nc1nccs1)C(c1ccccc1)c1ccc(N2CCOCC2)nc1 (single isomer, unassigned) [Example 21, 2,2-Dimethyl-3-(6-(4-morpholinyl)-3-pyridinyl)-3-phenyl-N-1,3-thiazol-2-ylpropanamide] | 23.9% | – |
| 142 nM | – | CC(C)(C(=O)Nc1nncs1)C(c1ccccc1)c1ccc(N2CCOCC2)nc1 (single isomer, unassigned) [Example 23, 2,2-Dimethyl-3-(6-(4-morpholinyl)-3-pyridinyl)-3-phenyl-N-1,3,4-thiadiazol-2-ylpropanamide] | 29.4% | – |
| – | 15.8 nM | CCN(C)C(=O)c1ccc(-c2ccc(C(c3cccc(F)c3)C(C)C(=O)Nc3nncs3)s2)cc1 (single isomer, unassigned) [Example 98, N-ethyl-4-(5-(1-(3-fluorophenyl)-2-methyl-3-oxo-3-(1,3,4-thiadiazol-2-ylamino)propyl)-2-thienyl)-N-methylbenzamide] | 55.3% | – |
| – | 279 nM | CCN(C)C(=O)c1ccc(-c2ccc(C(c3cccc(F)c3)C(C)C(=O)Nc3nncs3)s2)cc1 (single isomer, unassigned) [Example 99, N-ethyl-4-(5-(1-(3-fluorophenyl)-2-methyl-3-oxo-3-(1,3,4-thiadiazol-2-ylamino)propyl)-2-thienyl)-N-methylbenzamide] | – | 49.36 % inh |
| – | 8.8 nM | CC(C(=O)Nc1nncs1)C(c1cccc(F)c1)c1ccc(-c2ccc(C(=O)N3CCOCC3)cc2)s1 (single isomer, unassigned) [Example 100, 3-(3-fluorophenyl)-2-methyl-3-(5-(4-(4-morpholinylcarbonyl)phenyl)-2-thienyl)-N-1,3,4-thiadiazol-2-ylpropanamide] | 50.6% | – |
| – | 576 nM | CC(C(=O)Nc1nncs1)C(c1cccc(F)c1)c1ccc(-c2ccc(C(=O)N3CCOCC3)cc2)s1 (single isomer, unassigned) [Example 101, 3-(3-fluorophenyl)-2-methyl-3-(5-(4-(4-morpholinylcarbonyl)phenyl)-2-thienyl)-N-1,3,4-thiadiazol-2-ylpropanamide] | – | 51.00 % inh |
| – | 10.6 nM | CC(C(=O)Nc1nncs1)C(c1cccc(F)c1)c1ccc(-c2ccc(C(=O)N(C)C)cc2)s1 (single isomer, unassigned) [Example 102, 4-(5-(1-(3-fluorophenyl)-2-methyl-3-oxo-3-(1,3,4-thiadiazol-2-ylamino)propyl)-2-thienyl)-N,N-dimethylbenzamide] | 52.6% | – |
| – | 879 nM | CC(C(=O)Nc1nncs1)C(c1cccc(F)c1)c1ccc(-c2ccc(C(=O)N(C)C)cc2)s1 (single isomer, unassigned) [Example 103, 4-(5-(1-(3-fluorophenyl)-2-methyl-3-oxo-3-(1,3,4-thiadiazol-2-ylamino)propyl)-2-thienyl)-N,N-dimethylbenzamide] | – | 49.86 % inh |
| – | 38.7 nM | CC(C(=O)Nc1nncs1)C(c1cccc(F)c1)c1ccc(-c2ccc(C(=O)N(C)C)c(Cl)c2)s1 (single isomer, unassigned) [Example 104, 2-chloro-4-(5-(1-(3-fluorophenyl)-2-methyl-3-oxo-3-(1,3,4-thiadiazol-2-ylamino)propyl)-2-thienyl)-N,N-dimethylbenzamide] | 49.5% | – |
| – | 446 nM | CC(C(=O)Nc1nncs1)C(c1cccc(F)c1)c1ccc(-c2ccc(C(=O)N(C)C)c(Cl)c2)s1 (single isomer, unassigned) [Example 105, 2-chloro-4-(5-(1-(3-fluorophenyl)-2-methyl-3-oxo-3-(1,3,4-thiadiazol-2-ylamino)propyl)-2-thienyl)-N,N-dimethylbenzamide] | – | 48.50 % inh |
